Laboratory results published in PMC3058180 (Journal of pharmaceutical sciences, 2010).

Tests used:
A/Wuhan/359/95 (H3N2) = test: microbe, parasite or virus in culture; format: cell-based; settings: Influenza A virus, H3N2, MDCK, read-out: IC50 (nM of Zanamivir)
[1] = tested on: A/turkey/MN/833/80 (H4N2); test: microbe, parasite or virus in culture; format: cell-based; settings: Influenza A virus, H4N2, MDCK, read-out: IC50 (nM of Zanamivir)

Structure (SMILES): CC(=O)N[C@H]1[C@H]([C@H](O)[C@H](O)CO)OC(C(=O)O)=C[C@@H]1N=C(N)N [compound 1, Zanamivir]
- IC50 (A/Wuhan/359/95 (H3N2)): 23000 nM
- IC50 [1]: 21000 nM
